Values after ≈ are worked out from the molar mass of the structure shown. Where two headings read alike, the source gives them in different places.
Key:
[1] = system: Aspergillus niger isolates; experiment: In vitro mycelial growth inhibition assay on amended agar; assay type: cell-based; conditions: 120 h, 5 days incubation, 22 C
Method: (§1) The sensitivity to cyclobutrifluram of 104 isolates of Aspergillus niger and 31 isolates of Aspergillus flavus was determined under in vitro lab conditions using a mycelial growth inhibition assay. Isolates of Aspergillus niger were retrieved from infected seeds or infected plants with clear symptoms of crown rot disease. Isolates of Aspergillus flavus were collected from infected seeds. The sensitivity to azoxystrobin of the isolates was determined under in vitro conditions using a conidial germination inhibition assay. Sensitivity tests were conducted in vitro using agar medium amended with cyclobutrifluram or azoxystrobin at the following concentrations: 0, 0.001, 0.01, 0.1, 1, and 10 mg a.i./L. The plates were incubated at room temperature (22 C). The mycelial growth of the colonies growing on plates amended or not with cyclobutrifluram was determined after 5 days of incubation. The conidial germination on agar plates amended or not with azoxystrobin was determined after 18 hours of incubation. A conidium was rated as germinated, if a normally developing germ tube had at least the length of a conidium. […] Effective dose values (EC50) are expressed in mg of cyclobutrifluram or azoxystrobin active ingredient/L. [table] [table]

[2] = system: Aspergillus flavus isolates; experiment: as above; assay type: cell-based; conditions: 120 h, 5 days incubation, 22 C
Method: as §1

Aspergillus niger = experiment: Peanut field trial, seed treatment, pest incidence 42 days after planting; assay type: in vivo, Aspergillus niger on Arachis hypogaea (peanut)
Method: A peanut field trial was carried out on May 11, 2020 in Malpur, Gujarat, India, to evaluate the efficacy of different compounds against Aspergillus sp. fungi. The disease symptoms started to occur 4 weeks after planting and an assessment on disease incidence (% infected plants) was done 42 days after planting.
Pest Incidence, 42 Days after Planting

[3] = system: Aspergillus niger isolates; experiment: In vitro conidial germination inhibition assay on amended agar; assay type: cell-based; conditions: 104 A. niger isolates, 18 hours incubation; for EC50 values, minimum: 22 C; for EC50 values, maximum: highest concentration used 10 mg a.i./L
Method: as §1

[4] = system: Aspergillus flavus isolates; experiment: as above; assay type: cell-based; conditions: 31 A. flavus isolates, 18 hours incubation; for EC50 values, maximum: highest concentration used 10 mg a.i./L
Method: as §1

| Structure (SMILES) | EC50 ([1]; 104 A. niger isolates from infected peanut seeds or plants, read-out: EC50 values, mean (geometric mean)) | EC50 ([1]; 104 A. niger isolates, read-out: EC50 values, maximum) | EC50 ([1]; 104 A. niger isolates, read-out: EC50 values, minimum) | EC50 ([2]; 31 A. flavus isolates from infected peanut seeds, read-out: EC50 values, mean (geometric mean)) | EC50 ([2]; 31 A. flavus isolates, read-out: EC50 values, maximum) | EC50 ([2]; 31 A. flavus isolates, read-out: EC50 values, minimum) | Pest incidence (LS Means) (Aspergillus niger; peanut GG 20, field trial Malpur, Gujarat, India, seed treatment, 42 days after planting, rates g AI/100 kg: VITAVAX 225, cyclobutrifluram 60, VIBRANCE MAXX 150, EVERGOL XTEND 30.8) | % efficacy based on disease incidence (Aspergillus niger; peanut GG 20, field trial, seed treatment, 42 days after planting, rates g AI/100 kg: VITAVAX 225, cyclobutrifluram 60, VIBRANCE MAXX 150, EVERGOL XTEND 30.8) | Aspergillus niger pest incidence compared to the untreated and standard treatments (Aspergillus niger; treatment 3, 60 g AI/100 kg seed treatment, 42 days after application) | EC50 values, minimum [3] | EC50 values, minimum ([3]; listed as azoxystrobin) | EC50 values, maximum [3] | EC50 values, maximum ([3]; listed as azoxystrobin) | EC50 values, minimum ([4]; 22 C) | EC50 values, maximum [4] | EC50 values, maximum ([4]; listed as azoxystrobin) |
| --- | --- | --- | --- | --- | --- | --- | --- | --- | --- | --- | --- | --- | --- | --- | --- | --- |
| O=C(N[C@@H]1CC[C@@H]1c1ccc(Cl)cc1Cl)c1cccnc1C(F)(F)F (racemic) [Cyclobutrifluram, cyclobutrifluram] | 0.082 µg/mL (≈ 0.211 µM) | 0.703 µg/mL (≈ 1.81 µM) | 0.00924 µg/mL (≈ 0.0238 µM) | 0.108 µg/mL (≈ 0.277 µM) | 0.7 µg/mL (≈ 1.8 µM) | 0.0262 µg/mL (≈ 0.0673 µM) | 0.42, % infected plants | 97.03% | significantly lower | – | – | – | – | – | – | – |
| CO/C=C(/C(=O)OC)c1ccccc1Oc1cc(Oc2ccccc2C#N)ncn1 [Azoxystrobin, azoxystrobin] | – | – | – | – | – | – | – | – | – | <0.001 mg · ai/L | 0.000793 mg · ai/L | >10 mg · ai/L | more than 10 mg · ai/L | 0.003457 mg · ai/L | >10 mg · ai/L | more than 10 mg · ai/L |

From US20240057600A1, “METHODS FOR CONTROLLING OR PREVENTING INFESTATION OF PLANTS BY A PHYTOPATHOGENIC MICROORGANISM OF THE GENUS ASPERGILLUS” (priority 2020, published 2024)
